Ends that are not written are not given here.
Assays:
[1] = system: MC3T3-E1 subclone 4 cells; format: cell-based, murine; conditions: for Interpretation of combination index on collagen maturity at EC50: 69 pM; for Interpretation of combination index on collagen maturity at EC50 / Interpretation of combination index on collagen maturity at […] EC50: t-test vs additivity 1.0±0.15; for Interpretation of combination index on collagen maturity at […] EC50: 100 pM; for Emax for dose-effect curves on collagen maturity: MC3T3-E1, day 14; for effect on collagen maturity index: MC3T3-E1, vs cultures without peptide (FIG. 20); for Cl at […] EC50 (combination index on collagen maturity): at […] mean EC50 of GIP and GLP-2, 100 pM; for Cl at […] EC50 (combination index on collagen maturity) / Cl at EC50 (combination index on collagen maturity): Chou & Talalay, mean ± SD; for Cl at EC50 (combination index on collagen maturity): at mean EC50 of GIP and GLP-2, 69 pM
Description: Briefly, MC3T3-E1 subclone 4 cells have been grown and propagated in α-MEM supplemented with 5% fetal bovine serum (FBS), 5% bovine calf serum (BCS), 100 U/mL penicillin, and 100 μg/mL streptomycin in a humidified atmosphere enriched with 5% CO2 at 37° C. […] This day was considered as day 1. The differentiation medium was replenished every two days. […] Cultures were rinsed at least six times with milliQ water, fixed in absolute ethanol, scrapped off the culture dish and transferred onto BaF2 windows where they were air-dried. Integrity of the collagen extracellular matrix was verified by comparing the obtained Fourier transform infrared spectrum with those of commercial collagen. Spectral analysis was performed using a Bruker Vertex 70 spectrometer (Bruker optics, Ettlingen, Germany) interfaced with a Bruker Hyperion 3000 infrared microscope equipped with a standard single element Mercury Cadmium Telluride (MCT) detector. Calibration of the infrared spectrometer is done once a week with a polystyrene film standard (Bruker optics). Infrared spectra were recorded at a resolution of 4 cm^-1, with an average of 32 scans in transmission mode. Background spectral images were collected under identical conditions from the same BaF2 windows at the beginning and end of each experiment to ensure instrument stability. At least 5 spectra were acquired for each condition and analyzed with a lab-made routine script (version 2.0) in Matlab R2016b (The Mathworks, Natick, MA). […] For GIP and GLP-2 dataset, the inventors used the collagen maturity data previously acquired and analyzed. First of all, collagen maturity obtained in control cultures, i.e. in the absence of double GIP/GLP-2 analogues, were averaged and subtracted to the all dataset. […] For each concentration of peptide, the mean, SD and number of events were computed. […] The GraphPad Prism analysis consisted in: […] Statistical Analysis […] Data are represented as mean±SD.

Murine Raw 264.7 cells = format: cell-based; conditions: for Emax, maximum inhibitory effect on osteoclastogenesis: Raw 264.7, * data obtained in previous experiments; for Cl at EC50 of GIP and GLP-2 (combination index for osteoclastogenesis): at 36.8 pM, Chou & Talalay; for Interpretation of combination index for osteoclastogenesis: at EC50 of GIP and GLP-2, 36.8 pM; for IC50 computed from curve fitting of osteoclastogenesis vs. peptide concentration: Raw 264.7, RANKL 10 ng/ml, 110 h, * values determined from previous experiments
Description: Murine Raw 264.7 cells were grown and expanded in propagation medium containing Dulbecco's modified Eagle medium (DMEM-Gibco) supplemented with 10% fetal bovine serum (FBS-Lonza), 100 U/mL penicillin and 100 μg/mL streptomycin (Gibco) in a humidified atmosphere enriched with 5% CO2 at 37° C. The first passage after thawing Raw 264.7 cells was considered as passage 1. Cells were used up to passage 8. […] Cultures were rinsed three times in distilled water and the residual activity was inhibited by 4% NaF (Sigma-Aldrich) for 30 min. Cells were then rinsed in distilled water and allowed to dry. TRAcP positive cells, with more than three nuclei, were identified as osteoclasts. The number of newly generated osteoclasts was assessed using light microscopic examination by a histologist that was blinded to the treatment intervention. […] For each concentration of peptide, the mean, SD and number of events were computed.

Murine MC3T3-E1 cells = test: Collagen maturity assay in MC3T3-E1 cultures (Example 2); format: cell-based; conditions: MC3T3-E1 cultures (FIGS. 5-7)
Description: At confluence, the propagation medium was replaced by the differentiation medium containing αMEM supplemented with 5% FBS, 5% bovine calf serum, 100 U/mL penicillin, 100 μg/mL streptomycin, 50 μg/ml ascorbic acid and various concentrations of analogues. This day was considered as day 1. The differentiation medium was replenished every two days. […] Cultures were rinsed at least six times with milliQ water, fixed in absolute ethanol, scrapped off the culture dish and transferred onto BaF2 windows where they were air-dried. Integrity of the collagen extracellular matrix was verified by comparing the obtained Fourier transform infrared spectrum with those of commercial collagen. Spectral analysis was performed using a Bruker Vertex 70 spectrometer (Bruker optics, Ettlingen, Germany) interfaced with a Bruker Hyperion 3000 infrared microscope equipped with a standard single element Mercury Cadmium Telluride (MCT) detector. Infrared spectra were recorded at a resolution of 4 cm^−1, with an average of 32 scans in transmission mode. Background spectral images were collected under identical conditions from the same BaF2 windows at the beginning and end of each experiment to ensure instrument stability. At least 20 spectra were acquired for each condition and analyzed with a lab-made routine script in Matlab R2016b (The Mathworks, Natick, MA).

| EC50 [1] | Interpretation of combination index on collagen maturity at EC50 [1] | Interpretation of combination index on collagen maturity at […] EC50 [1] | Cl at […] EC50 (combination index on collagen maturity) [1] | Cl at EC50 (combination index on collagen maturity) [1] | EC50 (Murine Raw 264.7 cells) | Compound | Emax for dose-effect curves on collagen maturity [1] | effect on collagen maturity index [1] | Emax, maximum inhibitory effect on osteoclastogenesis (Murine Raw 264.7 cells) | Cl at EC50 of GIP and GLP-2 (combination index for osteoclastogenesis) (Murine Raw 264.7 cells) | Interpretation of combination index for osteoclastogenesis (Murine Raw 264.7 cells) | IC50 computed from curve fitting of osteoclastogenesis vs. peptide concentration (Murine Raw 264.7 cells) | profile of collagen maturity versus concentration (Murine MC3T3-E1 cells) |
| --- | --- | --- | --- | --- | --- | --- | --- | --- | --- | --- | --- | --- | --- |
| 0.0194 nM | Additive (CI 0.85-1.15: additive) | Additive (CI 0.85-1.15: additive) | 1.79 ± 2.20 | 1.29 ± 1.65 |  | CC[C@H](C)[C@H](NC(=O)[C@H](Cc1ccccc1)NC(=O)[C@H](CC(=O)O)NC(=O)[C@H](CCCNC(=N)N)NC(=O)[C@H](C)NC(=O)[C@H](C)NC(=O)[C@H](CC(C)C)NC(=O)[C@H](CC(N)=O)NC(=O)[C@H](CC(=O)O)NC(=O)[C@H](CC(C)C)NC(=O)[C@@H](NC(=O)[C@@H](NC(=O)[C@H](CO)NC(=O)[C@H](Cc1ccc(O)cc1)NC(=O)[C@H](CC(=O)O)NC(=O)[C@H](CO)NC(=O)[C@@H](NC(=O)[C@H](Cc1ccccc1)NC(=O)[C@@H](NC(=O)CNC(=O)[C@H](CC(=O)O)NC(=O)[C@H](C)NC(=O)[C@@H](N)Cc1c[nH]cn1)[C@@H](C)O)[C@@H](C)CC)[C@@H](C)O)[C@@H](C)CC)C(=O)N[C@@H](CC(N)=O)C(=O)N[C@@H](Cc1c[nH]c2ccccc12)C(=O)N[C@@H](CC(C)C)C(=O)N[C@H](C(=O)N[C@@H](CCC(N)=O)C(=O)N[C@H](C(=O)N[C@@H](CCCCN)C(=O)N[C@H](C(=O)N[C@H](C(=O)N[C@@H](CC(=O)O)C(N)=O)[C@@H](C)O)[C@@H](C)CC)[C@@H](C)O)[C@@H](C)CC [Co-3] | 121.8% | very modest | 37.88% | 48.00 | Very strong antagonism (CI>10: very strong antagonism) |  |  |
| 0.0229 nM | Additive (CI 0.85-1.15: additive) | Additive (CI 0.85-1.15: additive) | 389.0 ± 864 | 277.7 ± 617.4 | 0.0324 nM | CC[C@H](C)[C@H](NC(=O)[C@H](Cc1ccccc1)NC(=O)[C@H](CC(=O)O)NC(=O)[C@H](CCCNC(=N)N)NC(=O)[C@H](C)NC(=O)[C@H](C)NC(=O)[C@H](CC(C)C)NC(=O)[C@H](CC(N)=O)NC(=O)[C@H](CC(=O)O)NC(=O)[C@H](CC(C)C)NC(=O)[C@@H](NC(=O)[C@@H](NC(=O)[C@H](CO)NC(=O)[C@H](Cc1ccc(O)cc1)NC(=O)[C@H](CC(=O)O)NC(=O)[C@H](CO)NC(=O)[C@@H](NC(=O)[C@H](Cc1ccccc1)NC(=O)[C@@H](NC(=O)CNC(=O)[C@H](CC(=O)O)NC(=O)[C@H](C)NC(=O)[C@@H](N)Cc1c[nH]cn1)[C@@H](C)O)[C@@H](C)CC)[C@@H](C)O)[C@@H](C)CC)C(=O)N[C@@H](CC(N)=O)C(=O)N[C@@H](Cc1c[nH]c2ccccc12)C(=O)N[C@@H](CC(C)C)C(=O)N[C@H](C(=O)N[C@@H](CCC(N)=O)C(=O)N[C@H](C(=O)N[C@@H](CCCCN)C(=O)NCC(=O)N[C@@H](CCCCN)C(=O)N[C@@H](CCCCN)C(N)=O)[C@@H](C)O)[C@@H](C)CC [Co-19] | 118.1% | very modest | 62.36% | 1.94 | Antagonism (CI 1.45-3.3: antagonism) | 0.0324 nM |  |
|  |  |  |  |  |  | CC[C@H](C)[C@H](NC(=O)[C@H](CO)NC(=O)[C@H](CCSC)NC(=O)[C@H](CC(=O)O)NC(=O)[C@H](CO)NC(=O)CNC(=O)[C@H](Cc1ccccc1)NC(=O)[C@H](CO)NC(=O)CNC(=O)[C@H](CCC(=O)O)NC(=O)CNC(=O)[C@@H](N)Cc1c[nH]cn1)C(=O)N[C@@H](C)C(=O)N[C@@H](CC(C)C)C(=O)N[C@@H](CC(=O)O)C(=O)N[C@@H](CCCCN)C(=O)N[C@@H](CC(C)C)C(=O)N[C@@H](C)C(=O)N[C@@H](C)C(=O)N[C@@H](CCCNC(=N)N)C(=O)N[C@@H](CC(=O)O)C(=O)N[C@@H](Cc1ccccc1)C(=O)N[C@H](C(=O)N[C@@H](CC(N)=O)C(=O)N[C@@H](Cc1c[nH]c2ccccc12)C(=O)N[C@@H](CC(C)C)C(=O)N[C@@H](CC(C)C)C(=O)N[C@@H](CCC(N)=O)C(=O)N[C@H](C(=O)N[C@@H](CCCCN)C(=O)N[C@H](C(=O)N[C@H](C(=O)N[C@@H](CC(=O)O)C(=O)NCC(=O)N[C@@H](C)C(=O)N[C@@H](C)C(=O)N[C@@H](CC(=O)O)C(=O)N[C@@H](CC(=O)O)C(=O)N[C@@H](CC(=O)O)C(=O)N[C@@H](CC(=O)O)C(=O)N[C@@H](CC(=O)O)C(=O)N[C@@H](CC(=O)O)C(N)=O)[C@@H](C)O)[C@@H](C)CC)[C@@H](C)O)C(C)C [GL-0001-Tag] |  |  |  |  |  |  | biphasic profile |
|  |  |  |  |  |  | CC[C@H](C)[C@H](NC(=O)[C@H](CO)NC(=O)[C@H](CCSC)NC(=O)[C@H](CC(=O)O)NC(=O)[C@H](CO)NC(=O)[C@@H](NC(=O)[C@H](Cc1ccccc1)NC(=O)[C@H](CO)NC(=O)CNC(=O)[C@H](CCC(=O)O)NC(=O)CNC(=O)[C@@H](N)Cc1c[nH]cn1)C(C)C)C(=O)N[C@H](C(=O)N[C@@H](CC(C)C)C(=O)N[C@@H](CC(=O)O)C(=O)N[C@@H](CCCCN)C(=O)N[C@@H](CC(C)C)C(=O)N[C@@H](C)C(=O)N[C@@H](C)C(=O)N[C@@H](CCCNC(=N)N)C(=O)N[C@@H](CC(=O)O)C(=O)N[C@@H](Cc1ccccc1)C(=O)N[C@H](C(=O)N[C@@H](CC(N)=O)C(=O)N[C@@H](Cc1c[nH]c2ccccc12)C(=O)N[C@@H](CC(C)C)C(=O)N[C@@H](CC(C)C)C(=O)N[C@@H](CCC(N)=O)C(=O)N[C@H](C(=O)N[C@@H](CCCCN)C(N)=O)[C@@H](C)O)C(C)C)C(C)C [GL-0002] |  |  |  |  |  |  | biphasic profile |
|  |  |  |  |  |  | CSCC[C@H](NC(=O)[C@H](CC(=O)O)NC(=O)[C@H](CO)NC(=O)[C@@H](NC(=O)[C@H](Cc1ccccc1)NC(=O)[C@H](CO)NC(=O)CNC(=O)[C@H](CCC(=O)O)NC(=O)CNC(=O)[C@@H](N)Cc1c[nH]cn1)C(C)C)C(=O)N[C@@H](CO)C(=O)N[C@H](C(=O)N[C@H](C(=O)N[C@@H](CC(C)C)C(=O)N[C@@H](CC(=O)O)C(=O)N[C@@H](CCCCN)C(=O)N[C@@H](CC(C)C)C(=O)N[C@@H](C)C(=O)N[C@@H](C)C(=O)N[C@@H](CCCNC(=N)N)C(=O)N[C@@H](CC(=O)O)C(=O)N[C@@H](Cc1ccccc1)C(=O)N[C@H](C(=O)N[C@@H](CC(N)=O)C(=O)N[C@@H](Cc1c[nH]c2ccccc12)C(=O)N[C@@H](CC(C)C)C(=O)N[C@@H](CC(C)C)C(=O)N[C@@H](CCC(N)=O)C(=O)N[C@H](C(=O)N[C@@H](CCCCN)C(N)=O)[C@@H](C)O)C(C)C)C(C)C)C(C)C [GL-0004] |  |  |  |  |  |  | biphasic profile |
| 0.0086 ± 0.0069 nM | Additive (CI 0.85-1.15: additive) | Antagonism (CI 1.45-3.3: antagonism) | 2.30 ± 1.01 | 1.53 ± 1.10 | 1.48 nM | HAEGTFISDYSIAMDKLAARDFINWLIQTKITD-NH2 (C-terminus assumed) [Co-7] | 115.6% | very modest | 58.05% | 271.28 | Very strong antagonism (CI>10: very strong antagonism) | 1.48 nM |  |

Source: patent US12617831B2 (UNIVERSITE D'ANGERS, priority 2019, dated 2026)
